Data on 24 compounds can be found in patent publication US11173145B2, “Compounds useful as inhibitors of indoleamine 2,3-dioxygenase and/or tryptophan dioxygenase” (Board of Regents, The University of Texas System, priority 2017, dated 2021).

For one assay, the target named is T1, IDO1 (Homo sapiens, UniProt P14902).
T1 construct: endogenous in cells; host or cells: HeLa cells (ATCC), IFNgamma-induced
Nature of the assay: IDO1 cell-based assay (HeLa cells, IFNgamma-induced, N-formylkynurenine/L-tryptophan by RFMS). The note with it: 10 ng/mL IFNgamma, 24 hours. The procedure, abridged: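 N-formylkynurenine and tryptophan peak areas in media measured by RFMS (C18, isocratic, d-Trp standard), giving IC50 values by regression. Source: HeLa cells incubated 24 h with IFNgamma (10 ng/mL) plus test compound at 0.5% DMSO; parallel CellTiter-Glo viability read.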

The target of the next assay is T2, mouse IDO1 (Mus musculus, UniProt P28776).
T2 construct: The murine PANC02 pancreatic ductal adenocarcinoma cell line was routinely maintained in DMEM media; endogenous in cells; host or cells: PANC02 murine pancreatic ductal adenocarcinoma cells, induced with mouse IFNgamma
Description: Mouse IDO1 cell-based assay (PANC02 cells, mouse IFNgamma-induced, N-formylkynurenine/L-tryptophan by RFMS). The settings on record: 30 ng/mL mouse IFNgamma, 48 hours. How it is done: The murine PANC02 pancreatic ductal adenocarcinoma cell line was routinely maintained in DMEM media containing 10% FBS. Cells (3,000/well) were seeded onto a 384 well plate in 50 μl of media and incubated at 37° C., 5% CO2 overnight. Cell media was aspirated, fresh media containing 30 ng/mL mouse IFNgamma (Gibco Life Technologies, cat #PMC4031) was added, and cells were incubated in absence or presence of various concentrations of compounds (final 0.5% DMSO) for 48 hours at 37° C., 5% CO2. Aliquots of the cell conditioned media was removed from the cell plate, and mixed with equal volume of 200 mM ZnSO4 to precipitate media containing protein. Two volumes of acetonitrile were added by mixing, and samples were then centrifuged at 2250G for 20 minutes at 4° C. Aliquots of the supernatant were diluted 1:10 in 0.1% formic acid containing 3 μM of deuterated Tryptophan as an internal standard.
Samples were analyzed via RFMS to quantify N-Formyl Kynurenine (AUC) and L-tryptophan (AUC). A C18 cartridge was used with mobile phases of 0.1% Formic Acid and 80% ACN/0.1% Formic Acid under isocratic conditions. Dose-response curves were analyzed using IC50 regression curve fitting (GeneData Screener). Curves were plotted as percent of control and normalized by high controls without inhibitor (100%), and low controls (0%) containing 1 μM of epacadostat. Cell viability was also assessed using the Cell Titer Glo Kit (Promega) following manufacture recommendation.

T1 sequence (P14902 whole entry): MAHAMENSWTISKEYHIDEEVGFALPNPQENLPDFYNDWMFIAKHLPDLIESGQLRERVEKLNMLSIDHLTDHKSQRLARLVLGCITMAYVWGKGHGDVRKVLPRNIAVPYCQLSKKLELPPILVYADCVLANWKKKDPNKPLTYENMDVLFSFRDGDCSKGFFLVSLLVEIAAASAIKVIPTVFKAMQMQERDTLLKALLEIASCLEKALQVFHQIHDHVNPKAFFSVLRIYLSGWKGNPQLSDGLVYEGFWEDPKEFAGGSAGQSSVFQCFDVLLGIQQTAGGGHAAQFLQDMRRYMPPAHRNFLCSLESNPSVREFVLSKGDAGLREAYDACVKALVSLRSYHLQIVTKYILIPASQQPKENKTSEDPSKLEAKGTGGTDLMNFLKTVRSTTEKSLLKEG
T2 sequence (P28776 whole entry): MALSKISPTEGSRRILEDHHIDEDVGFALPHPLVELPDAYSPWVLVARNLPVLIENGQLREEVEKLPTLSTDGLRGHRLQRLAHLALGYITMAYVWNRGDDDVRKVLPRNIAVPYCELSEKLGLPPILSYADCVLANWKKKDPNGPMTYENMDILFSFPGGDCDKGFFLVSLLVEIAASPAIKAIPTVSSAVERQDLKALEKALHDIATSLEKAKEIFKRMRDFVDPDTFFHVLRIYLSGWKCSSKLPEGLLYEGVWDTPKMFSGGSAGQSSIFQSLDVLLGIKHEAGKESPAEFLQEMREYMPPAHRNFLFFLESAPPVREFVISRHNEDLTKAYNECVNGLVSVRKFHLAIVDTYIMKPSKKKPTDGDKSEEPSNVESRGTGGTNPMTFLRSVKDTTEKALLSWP

For the compound `CCC(NC(=O)c1ccc(Cl)cc1)[C@H]1[C@@H]2C[C@@H](n3nncc3C3CC3)C[C@@H]21` (stereo partly drawn) [Compound 153, 4-chloro-N-(1-((1R,3s,5S,6r)-3-(5-cyclopropyl-1H-1,2,3-triazol-1-yl)bicyclo[3.1.0]hexan-6-yl)propyl)benzamide], the IC50 (as a rule, the concentration at which inhibition is half-maximal) on IDO1 was < 200 nM; on mouse IDO1 it was < 500 nM.

Regarding `CCC(NC(=O)c1ccc(Cl)cc1)[C@H]1[C@@H]2C[C@@H](n3cc(N)nn3)C[C@@H]21` (stereo partly drawn) [Compound 239, N-(1-((1R,3s,5S,6r)-3-(4-amino-1H-1,2,3-triazol-1-yl)bicyclo[3.1.0]hexan-6-yl)propyl)-4-chlorobenzamide], the IC50 against IDO1 was 2000 to 5000 nM; against mouse IDO1 it was > 5000 nM.

As to `CCC(NC(=O)c1ccc(Cl)cc1)[C@H]1[C@@H]2C[C@@H](n3cnc(-c4ccccc4)c3)C[C@@H]21` (stereo partly drawn) [Compound 200, 4-chloro-N-(1-((1R,3s,5S,6r)-3-(4-phenyl-1H-imidazol-1-yl)bicyclo[3.1.0]hexan-6-yl)propyl)benzamide], the half-inhibitory concentration (IC50) is < 200 nM on IDO1 and 500 to 2000 nM against mouse IDO1.

For the compound `CCC(NC(=O)c1ccc(Cl)cc1)[C@H]1[C@@H]2C[C@@H](NC(=O)c3ncccc3Cl)C[C@@H]21` (stereo partly drawn) [Compound 218, 3-chloro-N-((1R,3s,5S,6r)-6-(1-(4-chlorobenzamido)propyl)bicyclo[3.1.0]hexan-3-yl)picolinamide], the IC50 at IDO1 is < 200 nM; against mouse IDO1, 500 to 2000 nM.

On to `CCOC(=O)C(N[C@@H]1C[C@@H]2[C@H](C1)[C@H]2C(CC)NC(=O)c1ccc(Cl)cc1)c1ccccc1` (stereo partly drawn) [Compound 190, ethyl 2-(((1R,3s,5S,6r)-6-(1-(4-chlorobenzamido)propyl)bicyclo[3.1.0]hexan-3-yl)amino)-2-phenylacetate], for which the half-maximal inhibitory concentration (IC50) at IDO1 is 200 to 2000 nM; on mouse IDO1, > 5000 nM.

For the compound `CCC(NC(=O)c1ccc(Cl)cc1)[C@H]1[C@@H]2C[C@@H](n3c(=O)n(C)c4ccccc43)C[C@@H]21` (stereo partly drawn) [Compound 181, 4-chloro-N-(1-((1R,3s,5S,6r)-3-(3-methyl-2-oxo-2,3-dihydro-1H-benzo[d]imidazol-1-yl)bicyclo[3.1.0]hexan-6-yl)propyl)benzamide], the IC50 against IDO1 is < 200 nM; against mouse IDO1, < 500 nM.

As for `CCC(NC(=O)c1ccc(Cl)cc1)[C@H]1[C@@H]2C[C@@H](NC(=O)c3cc(C(F)(F)F)ccn3)C[C@@H]21` (stereo partly drawn) [Compound 225, N-((1R,3s,5S,6r)-6-(1-(4-chlorobenzamido)propyl)bicyclo[3.1.0]hexan-3-yl)-4-(trifluoromethyl)picolinamide], the half-inhibitory concentration (IC50) at IDO1 is < 200 nM; on mouse IDO1, 2000 to 5000 nM.

Take `CCC(NC(=O)c1ccc(Cl)cc1)[C@H]1[C@@H]2C[C@@H](C(C(=O)O)c3ccccc3)C[C@@H]21` (stereo partly drawn) [Compound 228, 2-((1R,3s, 5S, 6r)-6-(1-(4-chlorobenzamido)propyl)bicyclo[3.1.0]hexan-3-yl)-2-phenylacetic acid]: the IC50 at IDO1 and on mouse IDO1 was 2000 to 5000 nM throughout.

For `CCC(NC(=O)c1ccc(Cl)cc1)[C@@H]1[C@H]2C=C(c3ncnc4cc(F)ccc34)C[C@H]21` (stereo partly drawn) [Compound 255, 4-chloro-N-(1-((1R,5R,6S)-3-(7-fluoroquinazolin-4-yl)bicyclo[3.1.0]hex-2-en-6-yl)propyl)benzamide], the results for the 50% inhibitory concentration (IC50) at IDO1 and on mouse IDO1 were 200 to 2000 nM and 2000 to 5000 nM, respectively.

As for `CCC(NC(=O)c1ccc(Cl)cc1)[C@H]1[C@@H]2C[C@H](NC(=O)c3ccc(F)cn3)C[C@@H]21` (stereo partly drawn) [Compound 221, N-((1R,3r,5S,6r)-6-(1-(4-chlorobenzamido)propyl)bicyclo[3.1.0]hexan-3-yl)-5-fluoropicolinamide], the IC50 was < 200 nM at IDO1 and < 500 nM against mouse IDO1.

On to `CCC(NC(=O)c1ccc(Cl)cc1)[C@H]1[C@@H]2C[C@H](n3cc(COCCOC)nn3)C[C@@H]21` (stereo partly drawn) [Compound 215, 4-chloro-N-(1-((1R,3r,5S,6r)-3-(4-((2-methoxyethoxy)methyl)-1H-1,2,3-triazol-1-yl)bicyclo[3.1.0]hexan-6-yl)propyl)benzamide], for which the IC50 on IDO1 was in the range of 200 to 2000 nM; at mouse IDO1, 500 to 2000 nM.

For the compound `CCC(NC(=O)c1ccc(Cl)cc1)[C@H]1[C@@H]2C[C@@H](NC(=O)c3ccc(F)cn3)C[C@@H]21` (stereo partly drawn) [Compound 144, N-((1R,3s,5S,6r)-6-(1-(4-chlorobenzamido)propyl)bicyclo[3.1.0]hexan-3-yl)-5-fluoropicolinamide], the 50% inhibitory concentration (IC50) at IDO1 is < 200 nM; against mouse IDO1 it was 500 to 2000 nM.

Turning to `CCC(NC(=O)c1ccc(Cl)cc1)[C@H]1[C@@H]2C[C@@H](n3ccnc3C)C[C@@H]21` (stereo partly drawn) [Compound 201, 4-chloro-N-(1-((1R,3s,5S,6r)-3-(2-methyl-1H-imidazol-1-yl)bicyclo[3.1.0]hexan-6-yl)propyl)benzamide], the IC50 on IDO1 was < 200 nM; against mouse IDO1, 2000 to 5000 nM.

Consider `CCC(NC(=O)c1ccc(Cl)cc1)[C@H]1[C@@H]2C[C@@H](n3cnc(C4CC4)c3)C[C@@H]21` (stereo partly drawn) [Compound 261, 4-chloro-N-(1-((1R,3s, 5S, 6r)-3-(4-cyclopropyl-1H-imidazol-1-yl)bicyclo[3.1.0]hexan-6-yl)propyl)benzamide], for which the IC50 is < 200 nM against IDO1 and 500 to 2000 nM on mouse IDO1.

`CCC(NC(=O)c1ccc(Cl)cc1)[C@H]1[C@@H]2C[C@@H](n3ccc4ncnc-4c3)C[C@@H]21` (stereo partly drawn) [Compound 198, N-(1-((1R,3s,5S,6r)-3-(5H-imidazo[4,5-c]pyridin-5-yl)bicyclo[3.1.0]hexan-6-yl)propyl)-4-chlorobenzamide]: the results for the 50% inhibitory concentration (IC50) against IDO1 and on mouse IDO1 were < 200 nM and 500 to 2000 nM, respectively.

Regarding `CCC(NC(=O)c1ccc(Cl)cc1)[C@H]1[C@@H]2C[C@@H](n3ccc4cc(F)ccc43)C[C@@H]21` (stereo partly drawn) [Compound 229, 4-chloro-N-(1-((1R,3s,5S,6r)-3-(5-fluoro-1H-indol-1-yl)bicyclo[3.1.0]hexan-6-yl)propyl)benzamide], the IC50 on IDO1 was < 200 nM; at mouse IDO1 it was < 500 nM.

On to `CCC(NC(=O)c1ccc(Cl)cc1)[C@H]1[C@@H]2C[C@@H](NC(=O)c3cccnc3C)C[C@@H]21` (stereo partly drawn) [Compound 223, N-((1R,3s,5S,6r)-6-(1-(4-chlorobenzamido)propyl)bicyclo[3.1.0]hexan-3-yl)-2-methylnicotinamide], for which the IC50 at IDO1 was < 200 nM; against mouse IDO1 it was > 5000 nM.

As for `C[C@@H](NC(=O)c1ccc(C#N)cc1)[C@H]1[C@@H]2C[C@@H](Oc3ncnc4ccc(F)cc34)C[C@@H]21` [Compound 131, 4-cyano-N-((S)-1-((1R,3R,5S,6r)-3-((6-fluoroquinazolin-4-yl)oxy)bicyclo[3.1.0]hexan-6-yl)ethyl)benzamide], the 50% inhibitory concentration (IC50) is < 200 nM at IDO1 and 500 to 2000 nM on mouse IDO1.

With `CCC(NC(=O)c1ccc(Cl)cc1)[C@H]1[C@@H]2C[C@@H](NC(=O)N(C)c3ccccn3)C[C@@H]21` (stereo partly drawn) [Compound 189, 4-chloro-N-(1-((1R,3s, 5S, 6r)-3-(3-methyl-3-(pyridin-2-yl)ureido)bicyclo[3.1.0]hexan-6-yl)propyl)benzamide], the half-maximal inhibitory concentration (IC50) against IDO1 was < 200 nM; against mouse IDO1, 500 to 2000 nM.

For the compound `CCC(NC(=O)c1ccc(Cl)cc1)[C@H]1[C@@H]2C[C@@H](NC(=O)c3cncc(Cl)n3)C[C@@H]21` (stereo partly drawn) [Compound 150, 6-chloro-N-((1R,3s,5S,6r)-6-(1-(4-chlorobenzamido)propyl)bicyclo[3.1.0]hexan-3-yl)pyrazine-2-carboxamide], the IC50 at IDO1 was < 200 nM; on mouse IDO1 it was 2000 to 5000 nM.

With `CCC(NC(=O)c1ccc(Cl)cc1)[C@H]1[C@@H]2C[C@@H](n3ncc4cc(F)ccc43)C[C@@H]21` (stereo partly drawn) [Compound 208, 4-chloro-N-(1-((1R,3s,5S,6r)-3-(5-fluoro-1H-indazol-1-yl)bicyclo[3.1.0]hexan-6-yl)propyl)benzamide], the IC50 is < 200 nM against IDO1 and < 500 nM at mouse IDO1.

For `CCC(NC(=O)c1ccc(Cl)cc1)[C@H]1[C@@H]2C[C@@H](Nc3ccc(F)cn3)C[C@@H]21` (stereo partly drawn) [Compound 227, 4-chloro-N-(1-((R, 3s, 5S, 6r)-3-((5-fluoropyridin-2-yl)amino)bicyclo[3.1.0]hexan-6-yl)propyl)benzamide], the IC50 on IDO1 is < 200 nM; at mouse IDO1, 500 to 2000 nM.

Take `CCC(NC(=O)c1ccc(Cl)cc1)[C@H]1[C@@H]2C[C@@H](N3C(=O)c4ccccc4C3=O)C[C@@H]21` (stereo partly drawn) [Compound 161, 4-chloro-N-(1-((1R,3s,5S,6r)-3-(1,3-dioxoisoindolin-2-yl)bicyclo[3.1.0]hexan-6-yl)propyl)benzamide]: the half-inhibitory concentration (IC50) on IDO1 was < 200 nM; at mouse IDO1 it was 500 to 2000 nM.

Regarding `C[C@H](NC(=O)c1ccc(C#N)cc1)[C@H]1[C@@H]2C[C@@H](Oc3ncnc4ccc(F)cc34)C[C@@H]21` [Compound 130, 4-cyano-N-((R)-1-((1R,3S,5S,6r)-3-((6-fluoroquinazolin-4-yl)oxy)bicyclo[3.1.0]hexan-6-yl)ethyl)benzamide], the half-maximal inhibitory concentration (IC50) is < 200 nM against IDO1 and < 500 nM against mouse IDO1.
